From patent US6046217A, “2,3,5-trisubstituted pyridines as inhibitors of cyclooxygenase-2” (Merck Frosst Canada & Co., priority 1998, dated 2000)
Like-named read-outs stand apart in the source and are kept apart here.

How the values were obtained:
COX-2 [1] = target: T1, COX-2 (Homo sapiens, UniProt P35354); assay: cell-based; details: human whole blood, LPS-induced PGE2, 24 h; read-out: COX-2 (IC50 mM) HWB
T1 sequence (P35354 18-604): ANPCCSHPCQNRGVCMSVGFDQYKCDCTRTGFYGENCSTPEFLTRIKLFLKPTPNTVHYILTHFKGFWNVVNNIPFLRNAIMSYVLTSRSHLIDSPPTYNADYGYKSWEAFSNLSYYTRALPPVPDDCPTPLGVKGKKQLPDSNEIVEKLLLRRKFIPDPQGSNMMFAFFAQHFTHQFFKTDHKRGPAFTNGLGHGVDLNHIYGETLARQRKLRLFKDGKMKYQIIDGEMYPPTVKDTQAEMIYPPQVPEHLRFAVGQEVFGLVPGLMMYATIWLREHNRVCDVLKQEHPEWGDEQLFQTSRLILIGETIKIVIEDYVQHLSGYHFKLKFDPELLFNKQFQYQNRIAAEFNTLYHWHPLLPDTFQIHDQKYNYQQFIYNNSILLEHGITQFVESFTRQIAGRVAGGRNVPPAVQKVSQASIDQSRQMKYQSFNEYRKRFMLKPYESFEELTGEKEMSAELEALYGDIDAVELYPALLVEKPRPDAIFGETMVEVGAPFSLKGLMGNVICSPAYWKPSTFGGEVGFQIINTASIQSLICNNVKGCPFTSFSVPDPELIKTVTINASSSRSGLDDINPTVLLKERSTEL
Description: As well, platelets in whole blood contain a large amount of the COX-1 enzyme. Immediately following blood clotting, platelets are activated through a thrombin-mediated mechanism. This reaction results in the production of thromboxane B2 (TxB2) via activation of COX-1. Thus, the effect of test compounds on TxB2 levels following blood clotting can be examined and used as an index for COX-1 activity. Therefore, the degree of selectivity by the test compound can be determined by measuring the levels of PGE2 after LPS induction (COX-2) and TxB2 following blood clotting (COX-1) in the same assay.
Fresh blood is collected in heparinized tubes by venipuncture from both male and female volunteers. The subjects have no apparent inflammatory conditions and have not taken any NSAIDs for at least 7 days prior to blood collection. Plasma is immediately obtained from a 2mL blood aliquot to use as blank (basal levels of PGE2). The remaining blood is incubated with LPS (100 μg/ml final concentration, Sigma Chem, #L-2630 from E. coli; diluted in 0.1% BSA (Phosphate buffered saline) for 5 minutes at room temperature. Five hundred […] aliquots of blood are incubated with either 2 μL of vehicle (DMSO) or 2 μL of a test compound at final concentrations varying from 10 nM to 30 μM for 24 hours at 37° C. At the end of the incubation, the blood is centrifuged at 12,000×g for 5 minutes to obtain plasma. A 100 μL aliquot of plasma is mixed with 400 μL of methanol for protein precipitation. The supernatant is obtained and is assayed for PGE2 using a radioimmunoassay kit (Amersham, RPA#530) after conversion of PGE2 to its methyl oximate derivative according to the manufacturer's procedure. […]

COX-1 = COX-1 (Homo sapiens, UniProt P23219); assay: Assay of COX-1 activity from U937 cell microsomes (PGE2); assay type: biochemical; set-up: Assay of COX-1 Activity from U937 Cell Microsomes; endogenous in cells; host or cells: U937 cells, 100,000 x g microsomal pellet; details: U-937 cell microsomes, 15 min preincubation; read-out: COX-1 (IC50 mM) U-937
Chain of COX-1 (P23219 24-599): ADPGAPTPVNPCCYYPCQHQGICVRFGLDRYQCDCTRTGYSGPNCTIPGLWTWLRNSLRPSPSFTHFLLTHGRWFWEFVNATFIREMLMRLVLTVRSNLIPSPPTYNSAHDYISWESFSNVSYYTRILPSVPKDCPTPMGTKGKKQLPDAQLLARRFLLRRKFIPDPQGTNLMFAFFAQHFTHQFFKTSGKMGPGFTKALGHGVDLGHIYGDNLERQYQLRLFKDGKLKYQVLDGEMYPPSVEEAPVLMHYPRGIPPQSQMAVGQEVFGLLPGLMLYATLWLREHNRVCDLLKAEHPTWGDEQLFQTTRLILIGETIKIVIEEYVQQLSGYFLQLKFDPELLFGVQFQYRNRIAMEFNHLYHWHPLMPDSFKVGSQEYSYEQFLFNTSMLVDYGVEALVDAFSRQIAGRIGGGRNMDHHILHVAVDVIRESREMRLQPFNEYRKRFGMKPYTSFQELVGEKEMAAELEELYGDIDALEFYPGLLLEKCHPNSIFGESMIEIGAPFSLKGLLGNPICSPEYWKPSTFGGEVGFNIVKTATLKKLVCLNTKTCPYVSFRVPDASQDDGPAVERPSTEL
Description: U 937 cells are pelleted by centrifugation at 500×g for 5 min and washed once with phosphate-buffered saline and repelleted. Cells are resuspended in homogenization buffer consisting of 0.1 M Tris-HCl, pH 7.4, 10 mM EDTA, […] leupeptin, 2 μg/ml soybean trypsin inhibitor, 2 μg/ml aprotinin and 1 mM phenyl methyl sulfonyl fluoride. The cell suspension is sonicated 4 times for 10 sec and is centrifuged at 10,000×g for 10 min at 4° C. The supernatant is centrifuged at 100,000×g for 1 hr at 4° C. The 100,000×g microsomal pellet is resuspended in 0.1 M Tris-HCl, pH 7.4, 10 mM EDTA to approximately 7 mg protein/ml and stored at -80° C.
Microsomal preparations are thawed immediately prior to use, subjected to a brief sonication, and then diluted to a protein concentration of 125 μg/ml in 0.1 M Tris-HCl buffer, pH 7.4 containing 10 mM EDTA, 0.5 mM phenol, 1 mM reduced glutathione and 1 μM hematin. Assays are performed in duplicate in a final volume of 250 μl. Initially, 5 μl of DMSO vehicle or drug in DMSO are added to 20 μl of 0.1 M Tris-HCl buffer, pH 7.4 containing 10 mM EDTA in wells of a 96-deepwell polypropylene titre plate. 200 μl of the microsomal preparation are then added and pre-incubated for 15 min at room temperature before addition of 25 μl of […] arachidonic acid in […] Tris-HCl and 10 mM EDTA, pH 7.4. Samples are incubated for 40 min at room temperature and the reaction is stopped by the addition of 25 μl of 1 N HCl. Samples are neutralized with 25 μl of 1 N NaOH prior to quantitation of PGE2 content by radioimmunoassay (Dupont-NEN or Amersham assay kits). Cyclooxygenase activity is defined as the difference between PGE2 levels in samples incubated in the presence of arachidonic acid and ethanol vehicle.
In the assay, inhibition is determined by measuring the amount of prostaglandin E2 (PGE2) synthesized in the presence of arachidonic acid, cyclooxygenase-1 or cyclooxygenase-2 and a putative inhibitor.

COX-2 [2] = target: T1, COX-2; assay: cell-based; details: CHO[hCOX-2] cells, 10 μM AA, 15 min preincubation; read-out: COX-2 (IC50 mM) CHO
Description: For cyclooxygenase assays, CHO[hCOX-1] cells from suspension cultures and CHO[hCOX-2] cells prepared by trypsinization of adherent cultures are harvested by centrifugation (300×g, 10 min) and washed once in HBSS containing 15 mM HEPES, pH 7.4, and resuspended in HBSS, 15 mM HEPES, pH 7.4, at a cell concentration of 1.5×10^6 cells/ml. Drugs to be tested are dissolved in DMSO to 66.7-fold the highest test drug concentration. […] Cells (0.3×10^6 cells in 200 μl) are preincubated with 3 μl of the test drug or DMSO vehicle for 15 min at 37° C. Working solutions of peroxide-free AA (5.5 μM and 110 μM AA for the CHO [hCOX-1] and CHO [COX-2] assays, respectively) are prepared by a 10-fold dilution of a concentrated AA solution in ethanol into HBSS containing 15 mM HEPES, pH 7.4. Cells are then challenged in the presence or absence of drug with the AA/HBSS solution to yield a final concentration of 0.5 μM AA in the CHO[hCOX-1] assay and a final concentration of 10 μM AA in the CHO[hCOX-2] assay. The reaction is terminated by the addition of 10 μl 1 N HCl followed by neutralization with 20 μl of 0.5 N NaOH. The samples are centrifuged at 300 ×g at 4° C. for 10 min, and an aliquot of the clarified supernatant is appropriately diluted for the determination of PGE2 levels using an enzyme-linked immunoassay for PGE2 (Correlate PGE2 enzyme immunoassay kit, Assay Designs, Inc.). Cyclooxygenase activity in the absence of test compounds is determined as the difference in PGE2 levels of cells challenged with arachidonic acid versus the PGE2 levels in cells mock-challenged with ethanol vehicle. Inhibition of PGE2 synthesis by test compounds is calculated as a percentage of the activity in the presence of drug versus the activity in the positive control samples.

Structure (SMILES)	IC50 (COX-2 [1]) [mM]	IC50 (COX-1) [mM]	IC50 (COX-2 [2]) [µM]
C[C@@H](O)[C@@H](C)Oc1ncc(Cl)cc1-c1ccc(S(C)(=O)=O)cc1 [Example 24, 5-Chloro-2-((2R,3R)-3-hydroxy-2-butyloxy)-3-(4-methylsulfonyl)phenylpyridine]	0.0015	> 0.01	0.07
CC(C)(O)CCOc1ncc(C(F)(F)F)cc1-c1ccc(S(C)(=O)=O)cc1 [Example 40, 2-(3-Hydroxy-3-methyl-1-butyloxy)-3-(4-methylsulfonyl)phenyl-5-trifluoromethylpyridine]	0.0039	0.01	0.2
CCC(O)(CC)CSc1ncc(C(F)(F)F)cc1-c1ccc(S(C)(=O)=O)cc1 [Example 47, 2-(2-Ethyl-2-hydroxy-1-thiobutyloxy)-3-(4-methylsulfonyl)phenyl-5-trifluoromethylpyridine]	0.0006	0.003 to 0.01	0.02
C[C@]1(O)CCC[C@H]1Oc1ncc(Cl)cc1-c1ccc(S(C)(=O)=O)cc1 (relative stereo) [Example 34, 5-Chloro-2-(cis-2-hydroxy-2-methylcyclopentyloxy)-3-(4-methylsulfonyl)phenylpyridine]	0.0017	> 0.01	0.1
C[C@@H](Oc1ncc(Cl)cc1-c1ccc(S(C)(=O)=O)cc1)C(C)(C)O [Example 18, 5-Chloro-2-((2R)-3-Hydroxy-3-methyl-2-butyloxy)-3-(4-methylsulfonyl)phenylpyridine]	0.0004	> 0.01	0.08
CCC(O)(CC)COc1ncc(Cl)cc1-c1ccc(S(C)(=O)=O)cc1 [Example 9, 5-Chloro-2-(2-hydroxy-2-ethyl-1-butyloxy)-3-(4-methylsulfonyl)phenylpyridine]	0.0016	> 0.01	0.07
CCC(C)(O)CSc1ncc(C(F)(F)F)cc1-c1ccc(S(C)(=O)=O)cc1 (single isomer, unassigned; (-)) [Example 46, (-)-2-(2-Hydroxy-2-methyl-1-thiobutyloxy)-3-(4-methylsulfonyl)phenyl-5-trifluoromethylpyridine]	–	0.001 to 0.003	–
CCC(C)(O)COc1ncc(C(F)(F)F)cc1-c1ccc(S(C)(=O)=O)cc1 (centres unmarked) [Example 7, 2-(2-Hydroxy-2-methyl-1-butyloxy)-3-(4-methylsulfonyl)phenyl-5-trifluoromethylpyridine]	0.001	> 0.01	0.13
CS(=O)(=O)c1ccc(-c2cc(C(F)(F)F)cnc2OCC2(O)CC2)cc1 [Example 11, 2-(1-Hydroxycyclopropyl)methoxy-3-(4-methylsulfonyl)phenyl-5-trifluoromethylpyridine]	0.0016	0.01	0.09
CC[C@]1(O)CCC[C@H]1Oc1ncc(C(F)(F)F)cc1-c1ccc(S(C)(=O)=O)cc1 (relative stereo) [Example 36, 2-(cis-2-Hydroxy-2-ethylcyclopentyloxy)-3-(4-methylsulfonyl)phenyl-5-trifluoromethylpyridine]	0.0031	> 0.01	0.17
C[C@]1(O)CCC[C@H]1Oc1ncc(C(F)(F)F)cc1-c1ccc(S(N)(=O)=O)cc1 (relative stereo) [Example 33, 3-(4-aminosulfonyl)phenyl-2-(cis-2-hydroxy-2-methylcyclopentyloxy)-5-trifluoromethylpyridine]	0.0037	0.01	0.04
C[C@@]1(O)CCC[C@H]1Oc1ncc(C(F)(F)F)cc1-c1ccc(S(C)(=O)=O)cc1 (relative stereo) [Example 35, 2-(trans-2-Hydroxy-2-methylcyclopentyloxy)-3-(4-methylsulfonyl)phenyl-5-trifluoromethylpyridine]	–	0.001 to 0.003	–
C[C@@H](O)CCOc1ncc(C(F)(F)F)cc1-c1ccc(S(C)(=O)=O)cc1 [Example 39, 2-((3R)-3-Hydroxy-1-butyloxy)-3-(4-methylsulfonyl)phenyl-5-trifluoromethylpyridine]	0.0134	> 0.01	0.2
CCC(O)(CC)CSc1ncc(Cl)cc1-c1ccc(S(C)(=O)=O)cc1 [Example 48, 5-Chloro-2-(2-ethyl-2-hydroxy-1-thiobutyloxy)-3-(4-methylsulfonyl)phenylpyridine]	0.0011	0.001 to 0.003	0.07
COCCOc1ncc(C(F)(F)F)cc1-c1ccc(S(C)(=O)=O)cc1 [Example 2, 2-(2-Methoxy)ethoxy-3-(4-methylsulfonyl)phenyl-5-trifluoromethylpyridine]	0.0013	0.001 to 0.003	0.02
CC(C)(O)COc1ncc(C(F)(F)F)cc1-c1ccc(S(C)(=O)=O)cc1 [Example 4, 2-(2-Hydroxy-2-methyl-1-propyloxy)-3-(4-methylsulfonyl)phenyl-5-trifluoromethylpyridine]	0.0008	> 0.1	0.15
CS(=O)(=O)c1ccc(-c2cc(C(F)(F)F)cnc2SCC2(O)CCCC2)cc1 [Example 49, 2-(1-Hydroxycyclopentyl)thiomethoxy-3-(4-methylsulfonyl)phenyl-5-trifluoromethylpyridine]	0.0012	0.0003	0.16
CS(=O)(=O)c1ccc(-c2cc(C(F)(F)F)cnc2O[C@H]2CCC[C@@H]2O)cc1 (relative stereo) [Example 30, 2-(trans-2-Hydroxycyclopentyloxy)-3-(4-methylsulfonyl)phenyl-5-trifluoromethylpyridine]	–	0.003 to 0.01	–
CCC(C)(O)CSc1ncc(C(F)(F)F)cc1-c1ccc(S(C)(=O)=O)cc1 (single isomer, unassigned; (+)) [Example 45, (+)-2-(2-Hydroxy-2-methyl-1-thiobutyloxy)-3-(4-methylsulfonyl)phenyl-5-trifluoromethylpyridine]	–	0.003 to 0.01	–
CS(=O)(=O)c1ccc(-c2cc(C(F)(F)F)cnc2O[C@@H]2CCC[C@@H]2O)cc1 (relative stereo) [Example 29, 2-(cis-2-Hydroxycyclopentyloxy)-3-(4-methylsulfonyl)phenyl-5-trifluoromethylpyridine]	–	> 0.01	–
